Assay results: US6759424B2, “Imidazolidine derivatives, their preparation, their use, and pharmaceutical preparations comprising them” (Aventis Pharma Deutschland GmbH, priority 1997, dated 2004)

What follows are compounds tested against T1, interaction between VCAM-1 and VLA-4 (Homo sapiens, UniProt P05556+P13612) (assay: U937/VCAM-1 cell adhesion test (adhesion of U937 cells to hVCAM-1(1-3)-IgG)). Conditions: human U937 cells adhering to hVCAM-1(1-3)-IgG; concentration giving 50% inhibition of adhesion.
T1 construct: supplied in their natural form as surface molecules on human U937 cells; host or cells: U937 cells carry VLA-4; The VCAM-1(1-3)-IgG partner was made by transient transfection of COS cells (ATCC CRL1651) and used as culture supernatant
Type: cell-based
Text: The test method used for the activity of the compounds of the formula I on the interaction between VCAM-1 and VLA-4 is an assay which is specific for this interaction. The cellular binding components, i.e., the VLA-4 integrins, are supplied in their natural form as surface molecules on human U937 cells (ATCC CRL 1593), which belong to the leucocytes group. The specific binding components used are genetically engineered recombinant soluble fusion proteins, consisting of the extracytoplasmatic domain of human VCAM-1 and the constant region of a human immunoglobulin of the subclass IgG1.
Assay for the Measurement of the Adhesion of U937 Cells (ATCC CRL 1593) to hVCAM-1 (1-3)-IgG
1. Preparation of Human VCAM-1(1-3)-IgG and Human CD4-IgG
A genetic construct for the expression of the extracellular domain of human VCAM-1, associated with the genetic sequence of the heavy chain of human immunoglobulin IgG1 (hinge, CH2 and CH3 regions), from Dr. Brian Seed, Massachusetts General Hospital, Boston, USA was employed (cf. Damle and Aruffo, Proc. Natl. Acad. Sci. USA 1991, 88, 6403-6407). The soluble fusion protein hVCAM-1(1-3)-IgG contained the three amino-terminal extracellular immunoglobulin-like domains of human VCAM-1 (Damle and Aruffo, Proc. Natl. Acad. Sci. USA 1991, 88, 6403). CD4-IgG (Zettlmeissl et al., DNA and Cell Biology 1990, 9, 347) served as a fusion protein for negative controls. The recombinant proteins were expressed as soluble proteins after DEAE/dextran-mediated DNA transfection in COS cells (ATCC CRL1651) according to standard procedures (Ausubel et al., Current Protocols in Molecular Biology, John Wiley & Sons, Inc., 1994).
2. Assay for the Measurement of the Adhesion of U937 Cells to hVCAM-1(1-3)-IgG
2.1 96-well microtiter test plates (Nunc Maxisorb) were incubated at room temperature for 1 hour with 100 μl/well of a goat-anti-human IgG antibody solution (10 μg/ml in 50 mM tris, pH 9.5). After removal of the antibody solution, washing was carried out once with PBS.
2.2 150 μl/well of a blocking buffer (1% BSA in PBS) was incubated on the plates at room temperature for 0.5 hour. After removal of the blocking buffer, washing was carried out once with PBS.
2.3 100 μl per well of a cell culture supernatant of transfected COS cells were incubated on the plates at room temperature for 1.5 hours. The COS cells were transfected with a plasmid which codes for the three N-terminal immunoglobulin-like domains of VCAM-1, coupled to the Fc part of human IgG, (hVCAM-1 (1-3)-IgG). The content of hVCAM-1 (1-3)-IgG was about 0.5-1 μg/ml. After removal of the culture supernatant washing was carried out once with PBS.
2.4 The plates were incubated at room temperature for 20 minutes with 100 μl/well of Fc receptor blocking buffer (1 mg/ml of γ-globulin, 100 mM NaCl, 100 μM MgCl2, 100 μM MnCl2, 100 μM CaCl2, 1 mg/ml of BSA in 50 mM HEPES, pH 7.5). After removal of the Fc receptor blocking buffer washing was carried out once with PBS.
2.5 20 μl of binding buffer (100 mM NaCl, 100 μM MgCl2, 100 μM MnCl2, 100 μM CaCl2, 1 mg/ml of BSA in 50 mM HEPES, pH 7.5) were initially introduced, and the substances to be tested were added in 10 μl of binding buffer and incubated for 20 minutes. The controls used were antibodies against VCAM-1 (BBT, No. BBA6) and against VLA-4 (Immunotech, No. 0764). […]

T1 sequence (P13612 34-1032): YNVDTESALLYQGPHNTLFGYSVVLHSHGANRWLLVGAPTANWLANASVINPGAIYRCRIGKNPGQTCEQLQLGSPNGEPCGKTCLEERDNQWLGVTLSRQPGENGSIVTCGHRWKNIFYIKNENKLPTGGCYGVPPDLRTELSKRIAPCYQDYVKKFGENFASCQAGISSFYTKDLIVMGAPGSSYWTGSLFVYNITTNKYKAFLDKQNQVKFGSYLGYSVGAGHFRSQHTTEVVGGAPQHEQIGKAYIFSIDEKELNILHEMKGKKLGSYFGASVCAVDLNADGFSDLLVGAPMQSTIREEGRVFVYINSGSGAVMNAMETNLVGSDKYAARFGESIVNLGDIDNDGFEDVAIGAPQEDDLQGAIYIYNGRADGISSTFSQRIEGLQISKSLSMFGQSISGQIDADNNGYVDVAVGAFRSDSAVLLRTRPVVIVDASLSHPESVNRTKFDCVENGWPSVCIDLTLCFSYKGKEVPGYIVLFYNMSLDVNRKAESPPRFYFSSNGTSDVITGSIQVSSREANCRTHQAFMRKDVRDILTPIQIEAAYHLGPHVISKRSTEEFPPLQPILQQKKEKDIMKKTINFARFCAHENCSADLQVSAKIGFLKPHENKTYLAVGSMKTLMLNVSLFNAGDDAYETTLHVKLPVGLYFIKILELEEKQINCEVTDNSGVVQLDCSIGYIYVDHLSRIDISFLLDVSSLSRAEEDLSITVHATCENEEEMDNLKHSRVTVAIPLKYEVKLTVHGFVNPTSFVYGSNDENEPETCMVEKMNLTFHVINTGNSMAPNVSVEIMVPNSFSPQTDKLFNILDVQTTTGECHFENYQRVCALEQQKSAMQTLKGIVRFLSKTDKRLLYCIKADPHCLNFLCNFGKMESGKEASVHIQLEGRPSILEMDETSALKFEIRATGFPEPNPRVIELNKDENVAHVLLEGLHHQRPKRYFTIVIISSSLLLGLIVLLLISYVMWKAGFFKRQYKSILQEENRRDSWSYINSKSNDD
T1 sequence (P05556 21-798): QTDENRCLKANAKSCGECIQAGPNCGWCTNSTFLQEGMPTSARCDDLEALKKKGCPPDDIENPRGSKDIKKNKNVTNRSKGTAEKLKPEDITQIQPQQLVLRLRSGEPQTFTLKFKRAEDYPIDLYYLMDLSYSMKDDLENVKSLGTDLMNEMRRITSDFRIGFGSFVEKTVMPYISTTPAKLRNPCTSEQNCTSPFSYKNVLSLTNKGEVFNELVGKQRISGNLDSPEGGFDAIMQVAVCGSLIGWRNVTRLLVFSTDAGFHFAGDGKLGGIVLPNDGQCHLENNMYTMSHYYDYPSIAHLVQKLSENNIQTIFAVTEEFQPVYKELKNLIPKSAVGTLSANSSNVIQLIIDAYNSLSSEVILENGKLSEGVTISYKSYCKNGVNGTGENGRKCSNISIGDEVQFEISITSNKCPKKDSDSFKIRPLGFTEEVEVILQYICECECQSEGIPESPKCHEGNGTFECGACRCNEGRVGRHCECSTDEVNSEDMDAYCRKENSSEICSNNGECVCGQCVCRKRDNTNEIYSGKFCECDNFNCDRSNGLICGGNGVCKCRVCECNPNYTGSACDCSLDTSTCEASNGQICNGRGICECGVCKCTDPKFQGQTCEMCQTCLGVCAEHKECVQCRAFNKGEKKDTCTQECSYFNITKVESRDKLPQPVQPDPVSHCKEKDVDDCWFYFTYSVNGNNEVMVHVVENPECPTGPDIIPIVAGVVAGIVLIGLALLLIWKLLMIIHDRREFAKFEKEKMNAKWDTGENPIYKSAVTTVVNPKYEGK

Row | IC50 [µM] | SMILES
1 | 45 | CC(C)C(C(=O)NC[C@H](NC(=O)OCC12CC3CC(CC(C3)C1)C2)C(=O)O)N1C(=O)N(Cc2ccccc2)C(C)(c2ccccc2)C1=O (stereo partly drawn) [Example 4, (S)-3-((R,S)-2-((R,S)-4-Phenyl-3-benzyl-4-methyl-2,5-dioxoimidazolidin-1-yl)-2-isopropylacetylamino)-2-(1-adamantylmethyloxycarbonylamino)-propionic acid]
2 | 8 | CC1(c2ccccc2)C(=O)N(CC(=O)N[C@@H](CC(=O)O)C(=O)N[C@H](C(=O)O)c2ccccc2)C(=O)N1Cc1ccccc1 (stereo partly drawn) [Example 7, ((R,S)-4-Phenyl-3-benzyl-4-methyl-2,5-dioxoimidazolidin-1-yl)acetyl-L-aspartyl-L-phenylglycine]
3 | 4.5 | C[C@]1(c2ccc(CO)cc2)C(=O)N(CC(=O)N[C@@H](CC(=O)O)C(=O)N[C@H](C(=O)O)c2ccccc2)C(=O)N1Cc1ccccc1 [Example 8, ((S)-4-(4-Hydroxymethylphenyl)-3-benzyl-4-methyl-2,5-dioxoimidazolidin-1-yl)acetyl-L-aspartyl-L-phenylglycine]
4 | 4 | C[C@]1(c2ccc(CO)cc2)C(=O)N(CC(=O)NC[C@H](NC(=O)OCC23CC4CC(CC(C4)C2)C3)C(=O)O)C(=O)N1Cc1ccccc1 [Example 9, (S)-3-(((S)-4-(4-Hydroxymethylphenyl)-3-benzyl-4-methyl-2,5-dioxoimidazolidin-1-yl)acetylamino)-2-(1-adamantylmethyloxycarbonylamino)propionic acid]
5 | 9.5 | CC1(c2ccc(O)cc2)C(=O)N(CC(=O)N[C@@H](CC(=O)O)C(=O)N[C@H](C(=O)O)c2ccccc2)C(=O)N1Cc1ccccc1 (stereo partly drawn) [Example 10, ((R,S)-4-(4-Hydroxyphenyl)-3-benzyl-4-methyl-2,5-dioxoimidazolidin-1-yl)acetyl-L-aspartyl-L-phenylglycine]
